Test results reported in US20220194960A1, “WEE1 INHIBITOR AND PREPARATION AND USE THEREOF” (SHOUYAO HOLDINGS (BEIJING) CO., LTD., priority 2019, published 2022).
pIC50: −log10 of the molar value. Where two headings read alike, the source gives them in different places.

Assays:
[1] = Animal pharmacokinetic studies in rats; assay type: in vivo; settings: male rats, 5 mg/kg single intragastric administration, plasma
Procedure: 3. Animal Pharmacokinetic Studies of Compounds:
Animal pharmacokinetic experiments were conducted with 3 healthy adult male rats from Beijing Vital River Laboratory Animal Technology Co., Ltd. The compound was suspended in a 20% solution of sulfobutyl ether-β-cyclodextrin (W/W/V) at a concentration of 1 mg/mL, The rats were subjected to 5 mg/kg suspension of the compound by single intragastric administration with a dosing volume of 5 mL/kg. Animals were fasted overnight prior to the experiment from 10 h before dosing to 4 h alter dosing. Blood was collected 0.25, 0.5, 1, 2, 4, 6, 8 and 24 h after administration. Animals were lightly anesthetized with isoflurane, and approximately 0.4 ml, of whole blood was collected from the orbital venous plexus with a glass blood collection tube, placed in a heparin anticoagulant tube, centrifuged at 4200 rpm for 5 min at 4° C., plasma transferred to the centrifuge tube, and stored at −80° C. until analysis. Test compounds extracted from rat plasma using acetonitrile protein precipitation and internal standard (Warfarin or Propranolol) were used for Plasma sample analysis, and the extracts were analyzed by LC/MS/MS. The measured plasma concentration-time data for individual animals were analyzed using non-compartmental model of WinNonlin (version 5.2.1; Pharsight) software to obtain the following pharmacokinetic parameters: maximum (peak) plasma drug concentration Cmax; a peak time Tmax; half-life T1/2 and the area under the plasma concentration-time curve front time 0 extrapolated to infinite time AUC0-inf.

WEE1 kinase = target: T1, WEE1 kinase (Homo sapiens, UniProt P30291); assay: WEE1 kinase binding assay (LanthaScreen EU); settings: WEE1 kinase 20 nM, Kinase Tracer 178 100 nM, 23° C. for 60 min, read-out: WEEI (IC50)
T1 construct: purchased Carna bioscience
T1 sequence (P30291 whole entry): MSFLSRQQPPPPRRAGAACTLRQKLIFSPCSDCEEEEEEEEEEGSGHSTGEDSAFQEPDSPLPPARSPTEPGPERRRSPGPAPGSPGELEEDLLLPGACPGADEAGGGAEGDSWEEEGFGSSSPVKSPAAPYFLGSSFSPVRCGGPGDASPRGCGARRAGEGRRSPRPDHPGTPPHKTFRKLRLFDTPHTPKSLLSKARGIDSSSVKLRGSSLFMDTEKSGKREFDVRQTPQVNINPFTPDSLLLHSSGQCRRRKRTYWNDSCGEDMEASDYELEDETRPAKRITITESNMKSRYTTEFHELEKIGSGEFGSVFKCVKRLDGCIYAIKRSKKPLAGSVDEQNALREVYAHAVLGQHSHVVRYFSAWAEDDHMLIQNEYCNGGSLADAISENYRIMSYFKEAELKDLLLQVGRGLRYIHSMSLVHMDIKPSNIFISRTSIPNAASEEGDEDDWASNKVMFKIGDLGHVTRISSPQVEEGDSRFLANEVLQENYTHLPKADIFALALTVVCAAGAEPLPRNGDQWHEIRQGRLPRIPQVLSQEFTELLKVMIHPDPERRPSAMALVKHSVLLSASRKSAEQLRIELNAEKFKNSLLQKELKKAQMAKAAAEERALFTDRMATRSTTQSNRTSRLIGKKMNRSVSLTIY
Procedure: 1. Assay for WEE1 Kinase Inhibitory Activity (IC50) on Compounds
The WEE1 kinase binding assay was established and optimized with LanthaScreen EU for the determination of the activity of compounds. 10 mM compounds were subjected to ten-fold gradient dilution in 100% DMSO (6 concentrations in total), 5 μL of diluent from each concentration was added to 45 μL of reaction buffer (50 mM HEPES (4-hydroxyethylpiperazine ethanesulfonic acid), pH 7.5, 10 mM MgCl2 (magnesium chloride), 1 mM EGTA (ethylene glycol diethyl ether diamine tetraacetic acid), 0.01% Brij-35 (polyoxyethylene lauryl ether)) for blending. On this basis, 2 μL diluent from each concentration was added to 48 μL of reaction buffer for blending as a 4*compound (final concentrations of 1000, 100, 10, 1, 0.1, 0 nM) for later use. Reaction buffer was used to formulate 4*WEE1 kinase (purchased from Carna bioscience, a final concentration of 20 nM), 4*LanthaScreen EU-anti-GST Antibody (purchased from Invitrogen, PV5594, a fuel concentration of 2 nM), and 4*Kinase Tracer 178 (purchased from Invitrogen, PV5593, a final concentration of 100 nM). 2.5 μL of 4*compound was added to a 384-well plate (OptiPlate-384, purchased from PerkinElmer), followed by adding 2.5 μL of 4*WEE1 kinase, standing for 5 min at room temperature. Then 2.5 μL of 4*LanthaScreen EU-anti-GST Antibody was added followed by 2.5 μL of 4*Kinase Tracer 178. The reaction was started by centrifugation (a total reaction volume of 10 μL). The 384-well plate was wrapped with tin foil paper and placed in an incubator at 23° C. for 60 min. Fluorescence values (excitation at 320 nm, detecting emitted light at 665 nm and 615 nm, and a ratio of the two as enzyme activity) were read on Envision (purchased from PerkinElmer). The enzyme activity of each compound was measured at 6 concentrations, and the IC50 value of the compound was calculated using GraFit6.0 software (Erithacus Software).
The aforementioned “*” refers to multiplying, representing multiples.

[2] = test system: Human non-small cell lung cancer cells NCI-H1299; assay: NCI-H1299 cell proliferation inhibition (CellTiter-Glo); assay type: cell-based; settings: Homo sapiens, 72 h, cultured 3 days, table head NCI-H1975, method NCI-H1299
Procedure: 2. Determination of Cell Proliferation Activity of Compounds:
NCI-H1299 cell proliferation inhibition screening method was established using CellTiter-fib detection reagent from Promega.
Human non-small cell lung cancer cells NCI-H1299 were cultured in 25 cm^2 or 75 cm^2 plastic tissue culture flasks (Corning) filled with DMEM (Gibco) medium supplemented with 10% fetal bovine serum (Hyclone) under 37° C., 95% air, and 5% CO2, and subcultured 2-3 times a week.
Cells were seeded at 1000 cells/well in a 96-well cell culture plate (Corning), 195 μL/well, and cultured under 37° C., 95% air, and 5% CO2. The next day test compound was added: 10 mM compounds (dissolved in DMSO) were subjected to 3-fold gradient dilution in DMSO, 2 μL of diluent from each concentration was added to 48 μL of serum-fret medium, and finally 5 μL of the diluted compound was added to the plate seeded with cells. The final concentration of DMSO in the cell culture was 0.1% and the foul concentration of the test compound was 0.3 nM-10 μM. The cells were cultured at 37° C. for 3 days.

| SMILES | half-life ([1]; rat, po) [h] | AUC(0-inf) ([1]; rat, po, read-out: AUC0-inf) [ng·h/mL] | Cmax ([1]; rat, po, read-out: Cmax) [ng/mL] | Tmax ([1]; rat, po, read-out: Tmax) [h] | AUC(0-inf) [1] [ng·h/mL] | Cmax [1] [ng/mL] | T1/2 [1] [h] | Tmax [1] [h] | pIC50 (WEE1 kinase) | pIC50 [2] |
| --- | --- | --- | --- | --- | --- | --- | --- | --- | --- | --- |
| CN1CCN(C2CCN(c3ccc(Nc4ncc5cc(C6CC6)n(-c6cccc(C(C)(C)O)n6)c5n4)cc3)CC2)CC1 [Example 56, 2-(6-(2-((4-(4-(4-methylpiperazin-1-yl)piperidin-1-yl)phenyl)amino)-6-cyclopropyl-7H-pyrrolo[2,3-d]pyrimidin-7-yl)pyridin-2-yl)propan-2-ol] | 7.6 | 1420 | 116 | 4 | – | – | – | – | – | – |
| CN1CCN(c2ccc(Nc3ncc4c(F)c(C5CC5)n(-c5cccc(C(C)(C)O)n5)c4n3)cc2)CC1 [Example 57, 2-(6-(2-((4-(4-methylpiperazin-1-yl)phenyl)amino)-5-fluoro-6-cyclopropyl-7H-pyrrolo[2,3-d]pyrimidin-7-yl)pyridin-2-yl)propan-2-ol] | 11.2 | 1080 | 68 | 2.3 | – | – | – | – | – | – |
| CN1CCN(C2CCN(c3ccc(Nc4ncc5c(F)c(C6CC6)n(-c6cccc(C(C)(C)O)n6)c5n4)cc3)CC2)CC1 [Example 58, 2-(6-(2-((4-(4-(4-methylpiperazin-1-yl)piperidin-1-yl)phenyl)amino)-5-fluoro-6-cyclopropyl-7H-pyrrolo[2,3-d]pyrimidin-7-yl)pyridin-2-yl)propan-2-ol] | – | – | – | – | 1751 | 83 | 10.9 | 6.0 | – | – |
| CN1CCN(C2CCN(c3ccc(Nc4ncc5cc(C6CC6)n(-c6cccc(C(C)(C)O)n6)c5n4)cc3F)CC2)CC1 [Example 77, 2-(6-(2-((3-fluoro-4 (4-(4-methylpiperazin-1-yl)piperidin-1-yl)phenyl)amino)-6-cyclopropyl-7H-pyrrolo[2,3-d]pyrimidin-7-yl)pyridin-2-yl)propan-2-ol] | 13.6 | 2340 | 98 | 5.33 | – | – | – | – | – | – |
| CCCc1cc2cnc(Nc3ccc(N4CCC5(CCN(C)CC5)CC4)cc3)nc2n1-c1cccc(C(C)(C)O)n1 [Example 124, 2-(6-(6-propyl-2-((4-(9-methyl-3,9-diazaspiro[5.5]undecan-3-yl)phenyl)amino)-7H-pyrrolo[2,3-d]pyrimidin-7-yl)pyridin-2-yl)propan-2-ol] | – | – | – | – | 4066 | 163 | 19.2 | 4.8 | 8.99 | – |
| Cc1cc2cnc(Nc3ccc(N4CCC(N5CCN(C)CC5)CC4)cc3)nc2n1-c1cccc(C(C)(C)O)n1 [Example 148, 2-(6-(6-methyl-2-((4-(4-(4-methylpiperazin-1-yl)piperidin-1-yl)phenyl)amino)-7H-pyrrolo[2,3-d]pyrimidin-7-yl)pyridin-2-yl)propan-2-ol] | 9.2 | 1100 | 64 | 5.4 | – | – | – | – | – | – |
| CCc1cc2cnc(Nc3ccc(N4CCC(N5CCN(C)CC5)CC4)cc3)nc2n1-c1cccc(N=S(C)(C)=O)n1 [Example 154, ((6-(6-ethyl-2-((4 (4-(4-methylpiperazin-1-yl)piperidin-1-yl)phenyl)amino)-7H-pyrrolo[2,3-d]pyrimidin-7-yl)pyridin-2-yl)imino)dimethyl-λ^6-sulfanone] | – | – | – | – | – | – | – | – | 9.28 | 7.16 |
| CCc1cc2cnc(Nc3ccc(N4CCN(CCN(C)C)CC4)cc3)nc2n1-c1cccc(N=S(C)(C)=O)n1 [Example 155, ((6-(2-((4 (4-(2-(dimethylamino)ethyl)piperazin-1-yl)phenyl)amino)-6-ethyl-7H-pyrrolo[2,3-d]pyrimidin-7-yl)pyridin-2-yl)imino)dimethyl-λ^6-sulfanone] | – | – | – | – | – | – | – | – | 8.99 | 7.05 |
